How the values were obtained:
[1] = target: T1, Human progesterone receptor (HPR) (Homo sapiens, UniProt P06401); test: Relative bond affinity (RBA), recombinant human progestogen receptor, charcoal dextran technique; assay type: binding; conditions: relative to Trimegestone
T1 construct: made in house; host or cells: SF9 insect cells (ATCC CRL1711), baculovirus, lysate supernatant
T1 sequence (P06401 1-933): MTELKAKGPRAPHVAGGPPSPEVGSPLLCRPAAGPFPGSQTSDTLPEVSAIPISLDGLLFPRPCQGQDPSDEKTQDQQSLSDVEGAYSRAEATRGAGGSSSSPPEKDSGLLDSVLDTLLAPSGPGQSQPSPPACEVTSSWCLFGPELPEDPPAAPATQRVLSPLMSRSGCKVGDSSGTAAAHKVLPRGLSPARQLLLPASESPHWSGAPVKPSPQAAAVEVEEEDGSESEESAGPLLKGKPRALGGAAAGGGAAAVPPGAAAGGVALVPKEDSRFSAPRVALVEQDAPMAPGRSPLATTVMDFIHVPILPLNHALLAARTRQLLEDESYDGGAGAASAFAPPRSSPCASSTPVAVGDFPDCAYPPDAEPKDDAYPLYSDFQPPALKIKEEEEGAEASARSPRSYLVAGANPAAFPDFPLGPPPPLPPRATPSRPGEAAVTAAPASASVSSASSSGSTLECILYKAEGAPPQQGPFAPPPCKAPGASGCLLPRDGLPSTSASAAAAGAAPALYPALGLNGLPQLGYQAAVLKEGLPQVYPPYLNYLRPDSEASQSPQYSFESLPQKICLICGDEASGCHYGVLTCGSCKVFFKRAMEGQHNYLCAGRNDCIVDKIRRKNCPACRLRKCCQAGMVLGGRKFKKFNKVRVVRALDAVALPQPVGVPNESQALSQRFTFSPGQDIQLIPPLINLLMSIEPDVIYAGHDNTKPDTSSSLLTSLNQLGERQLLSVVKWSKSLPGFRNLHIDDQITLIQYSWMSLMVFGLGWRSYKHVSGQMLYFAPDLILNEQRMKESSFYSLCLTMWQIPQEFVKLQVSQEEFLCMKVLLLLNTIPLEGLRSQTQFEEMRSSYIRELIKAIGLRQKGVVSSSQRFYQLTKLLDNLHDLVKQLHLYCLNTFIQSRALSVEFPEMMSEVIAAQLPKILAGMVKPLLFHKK
Source text: The human recombinant receptor (HGR, HPR, HAR, HMR, HER) was used.
Human progesterone receptor (HPR):
The recombinant human progestogen receptor was obtained by the superexpression in a cell system of insects--Baculovirus, according to the methodology described by Webb et al (Journal of Methods in Cell and Molecular Biology, (1990) Vol. 2 No. 4, p. 173-188) and the application of which was described for the expression of human hormonal receptors, for example the human glucocorticoid receptor (Srinivasan et al, Molecular Endocrinology, (1990) Vol. 4 No. 2, p. 209-216.
The BaculoGold Transfection Kit (PharMingen, reference 21000K) was used to insert the cDNA fragment described by Kastner et al (The EMBO Journal, (1990), Vol. 9 No. 5, p. 1603-1614), containing the region coding for the human progestogen receptor and to prepare the corresponding recombinant virus. The recombinant virus obtained in this way was used to express the progestogen receptor in SF9 insect cells (ATCC CRL1711), according to the known methodology cited previously.
2×10^7 to 2.5×10^7 SF9 cells were cultured in a 175 ml "Falcon" flask in the TNM-FH medium supplemented with 10% fetal calf serum (FCS) and with 50 micrograms/ml of gentamycin. After infection, then incubation at 27° C. for 40 to 42 hours, the cells were taken up in 1 ml of lysis buffer (1), lysed by 2 cycles of freezing-thawing (-80° C./ 0° C.), then centrifuged at 4° C. for 30 minutes at 20,900 g. The supernatant, containing the recombinant human progestogen receptor, was stored in liquid nitrogen in quantities of 1 ml.
The supernatant was diluted at the time of use with 10 mM Tris buffer, 0.25M saccharose, HCl pH 7.4 containing 0.1% of gelatin and then incubated at 0° C. for 24 hours with a constant concentration (T) of tritiated 17α, 21-dimethyl-19-nor-Δ^4,9 pregnadiene-3,20-dione in the presence of increasing concentrations of either unlabelled progesterone (0-2500×10^-9 M), or the unlabelled product to be tested (1 to 25000×10^-9 M). The concentration of bound tritiated 17,21-dimethyl-19-nor-Δ^4,9 -pregnadiene-3,20-dione (B) was then measured in each incubate using the charcoal dextran adsorption technique.
Calculation of the relative bond affinity (RBA).
The following two curves were drawn: the percentage of bound tritiated hormone B/BO as a function of the logarithm of the concentration of unlabelled reference hormone or as a function of the logarithm of the concentration of unlabelled test product. The straight line of the following equation was determined: […]
The relative bond affinity (RBA) of the test product was determined by the equation: […]

[2] = test system: endometrial proliferation (uterine lace); test: Progestomimetic activity: endometrial transformation in the rabbit (Clauberg-McPhail test); assay type: in vivo; set-up: key to Maximal activity on the uterine lace (McPhail index) / Average uterine lace (McPhail Index): McPhail scale 0–4 with 0.5 steps (endometrial proliferation); conditions: for Average uterine lace (McPhail Index): day 8 to day 11
Protocol: 2. --Determination of the progestomimetic activity of the products of the invention: Endometrial transformation in the rabbit. The animals used were impuberal female rabbits which were 40-45 days old. The animals were treated with estradiol (5 ug/0.2 ml/rabbit in solution of corn oil, 10% ethanol) by subcutaneous route from day 1 to day 5, then the product to be studied was administered from day 8 to day 11. On day 12, the animals were sacrificed and a median portion of each uterine cornua was removed from each animal and fixed in Bouin's liquid for histological study. After fixing, the samples were dehydrated, included, cut, mounted, the paraffin was removed and then the sample was stained with hemalum-eosin-saffron. […] Then, for each of the cornua, a semi-quantitative evaluation of the endometrial proliferation (uterine lace) was carried out by the McPhail scale from 0 to 4 with 0.5 intermediates and the two figures were averaged. Similarly, the degree of hypertrophy of the cornua was evaluated by the same scale. At higher magnification, morphological observations of the mucous membrane or the myometrium could possibly be formulated. The 1-OH metabolite (product A) was tested at doses of 10, 100, 1000 μg/kg by subcutaneous route as well as orally at a dose of 1000 μg/kg. The 6-OH metabolite (product B) was tested at doses of 100, 1000 and 10000 μg/kg subcutaneously. As a control, progesterone was administered at doses of 100 and 1000 μg/kg by subcutaneous route. The averages were produced for the uterine lace (McPhail Index).

C[C@H](O)C(=O)[C@@]1(C)CC[C@H]2[C@@H]3CCC4=CC(=O)C[C@H](O)C4=C3CC[C@@]21C [Product A, [1α, 17β-(S)]-1-hydroxy-17-(2-hydroxy-1-oxopropyl)-17-methyl-Δ^4,9-estradiene-3-one]
RBA for the human progestogen receptor, times weaker than that of Trimegestone [1]: 9 times | Average uterine lace (McPhail Index) ([2]; rabbit, 0,01 mg/kg, s/c): 3,8 | Average uterine lace (McPhail Index) ([2]; rabbit, 0,1 mg/kg, s/c): 3,8 | Hypertrophy of the cornua ([2]; rabbit, 1 mg/kg p/o route versus s/c route): stronger hypertrophy of the cornua | Average uterine lace (McPhail Index) ([2]; rabbit, 1 mg/kg, per os): 4 | Average uterine lace (McPhail Index) ([2]; rabbit, 1 mg/kg, s/c, 1 mg/kg): 3,8

CC(=O)[C@H]1CC[C@H]2[C@@H]3CCC4=CC(=O)CC[C@]4(C)[C@H]3CC[C@]12C [Progesterone, reference compound]
Average uterine lace (McPhail Index) ([2]; rabbit, 0,1 mg/kg, s/c): 1,8 | Maximal activity on the uterine lace (McPhail index) ([2]; rabbit, 1000 μg/kg by subcutaneous route (note)): 4 | Average uterine lace (McPhail Index) ([2]; rabbit, 1 mg/kg, s/c): 3,8

— patent publication US5834452A, “1- or 6-hydroxylated steroids” (Roussel Uclaf, priority 1996, dated 1998)
